Article PMC5218480 (PLoS ONE, 2017)

System: MV-4-11 cells
Assay: Gene expression microarray analysis (Affymetrix PrimeView) and GSEA
Format: cell-based, human
Parameters: RFU PODN (11730768_x_at) / Fold change /veh PODN (11730768_x_at) / RFU LINC00158 (11744669_a_at) / Fold change /veh LINC00158 (11744669_a_at) / RFU DUSP10 (11751237_a_at) / Fold change /veh DUSP10 (11751237_a_at) / RFU ID3 (11757404_x_at) / Fold change /veh ID3 (11757404_x_at) / RFU PLEKHG5 (11737974_s_at) / Fold change /veh PLEKHG5 (11737974_s_at) / RFU LRRC4B (11730491_at) / Fold change /veh LRRC4B (11730491_at) / RFU GIMAP4 (11747438_a_at) / Fold change /veh GIMAP4 (11747438_a_at) / RFU KRT8 (11758183_x_at) / Fold change /veh KRT8 (11758183_x_at) / RFU CNN1 (11734310_a_at) / Fold change /veh CNN1 (11734310_a_at) / RFU VPS37D (11726825_at) / Fold change /veh VPS37D (11726825_at) / RFU C10orf10 (11716522_x_at) / Fold change /veh C10orf10 (11716522_x_at) / RFU KIR2DL2 /// KIR2DL4 /// KIR2DL5A /// KIR2DL5B /// KIR2DS1 /// KIR2DS2 /// KIR2DS3 /// KIR2DS4 /// KIR3DL3 /// KIR3DL3 /// KIR3DS1 (11738374_at) / Fold change /veh KIR2DL2 /// KIR2DL4 /// KIR2DL5A /// KIR2DL5B /// KIR2DS1 /// KIR2DS2 /// KIR2DS3 /// KIR2DS4 /// KIR3DL3 /// KIR3DL3 /// KIR3DS1 (11738374_at) / RFU C1QL1 (11718748_at) / Fold change /veh C1QL1 (11718748_at) / RFU TMPRSS4 (11747572_a_at) / Fold change /veh TMPRSS4 (11747572_a_at) / RFU HAMP (11756126_x_at) / Fold change /veh HAMP (11756126_x_at) / RFU RNFT2 (11725882_a_at) / Fold change /veh RNFT2 (11725882_a_at) / RFU NR4A2 (11747474_a_at) / Fold change /veh NR4A2 (11747474_a_at) / RFU ABCC12 (11746883_a_at) / Fold change /veh ABCC12 (11746883_a_at) / RFU TMEM136 (11760407_x_at) / Fold change /veh TMEM136 (11760407_x_at) / RFU CLDN22 /// WWC2 (11732394_at) / Fold change /veh CLDN22 /// WWC2 (11732394_at) / RFU HLA-DPB1 (11760878_x_at) / Fold change /veh HLA-DPB1 (11760878_x_at) / RFU SPINT1 (11716480_a_at) / Fold change /veh SPINT1 (11716480_a_at) / RFU GAP43 (11754022_s_at) / Fold change /veh GAP43 (11754022_s_at) / RFU A4GNT (11735810_at) / Fold change /veh A4GNT (11735810_at) / RFU PRB3 (11715151_x_at) / Fold change /veh PRB3 (11715151_x_at) / RFU TUBB4B (11761932_at) / Fold change /veh TUBB4B (11761932_at) / RFU CAPN14 (11732068_a_at) / Fold change /veh CAPN14 (11732068_a_at) / RFU TMCC2 (11721928_a_at) / Fold change /veh TMCC2 (11721928_a_at) / RFU IRGQ (11745062_a_at) / Fold change /veh IRGQ (11745062_a_at) / RFU FAM174B (11720279_a_at) / Fold change /veh FAM174B (11720279_a_at) / RFU TMPRSS4 (11748680_a_at) / Fold change /veh TMPRSS4 (11748680_a_at) / RFU FAM212B (11763350_a_at) / Fold change /veh FAM212B (11763350_a_at) / RFU PLEKHG5 (11743358_a_at) / Fold change /veh PLEKHG5 (11743358_a_at) / RFU ZSCAN30 (11745921_a_at) / Fold change /veh ZSCAN30 (11745921_a_at) / RFU CMKLR1 (11741424_a_at) / Fold change /veh CMKLR1 (11741424_a_at) / RFU LOC101060620 /// MAPK8IP1 (11723275_at) / Fold change /veh LOC101060620 /// MAPK8IP1 (11723275_at) / RFU SPTSSB (11747773_x_at) / Fold change /veh SPTSSB (11747773_x_at) / RFU PRSS12 (11739890_at) / Fold change /veh PRSS12 (11739890_at) / RFU BIN1 (11741810_x_at) / Fold change /veh BIN1 (11741810_x_at) / RFU WNT11 (11732464_a_at) / Fold change /veh WNT11 (11732464_a_at) / RFU C10orf10 (11716521_a_at) / Fold change /veh C10orf10 (11716521_a_at) / RFU C5orf56 (11738089_at) / Fold change /veh C5orf56 (11738089_at) / RFU CYB561 (11721691_x_at) / Fold change /veh CYB561 (11721691_x_at) / RFU ANKRD19P (11752326_a_at) / Fold change /veh ANKRD19P (11752326_a_at) / RFU OR2T12 /// OR2T33 /// OR2T8 (11738714_s_at) / Fold change /veh OR2T12 /// OR2T33 /// OR2T8 (11738714_s_at) / RFU VCAN (11748164_a_at) / Fold change /veh VCAN (11748164_a_at) / RFU JSRP1 (11732532_at) / Fold change /veh JSRP1 (11732532_at) / RFU KRTAP10-11 (11738290_x_at) / Fold change /veh KRTAP10-11 (11738290_x_at) / RFU MYO3A (11730013_a_at) / Fold change /veh MYO3A (11730013_a_at) / RFU EBF3 (11725865_a_at) / Fold change /veh EBF3 (11725865_a_at) / RFU CAMK2N1 (11719241_x_at) / Fold change /veh CAMK2N1 (11719241_x_at) / RFU C5orf56 (11738088_a_at) / Fold change /veh C5orf56 (11738088_a_at) / RFU OLFML3 (11715873_a_at) / Fold change /veh OLFML3 (11715873_a_at) / RFU LOC100653217 /// NTM (11731650_a_at) / Fold change /veh LOC100653217 /// NTM (11731650_a_at) / RFU MAPK11 (11762145_a_at) / Fold change /veh MAPK11 (11762145_a_at) / RFU FIZ1 (11724087_x_at) / Fold change /veh FIZ1 (11724087_x_at) / RFU OASL (11726364_x_at) / Fold change /veh OASL (11726364_x_at) / RFU SOX15 (11748057_x_at) / Fold change /veh SOX15 (11748057_x_at) / RFU CD79A (11719716_a_at) / Fold change /veh CD79A (11719716_a_at) / RFU HIST1H1D (11736915_at) / Fold change /veh HIST1H1D (11736915_at) / RFU CASKIN2 (11723855_a_at) / Fold change /veh CASKIN2 (11723855_a_at) / RFU LOC730098 (11760151_x_at) / Fold change /veh LOC730098 (11760151_x_at) / RFU OR4N2 (11742367_at) / Fold change /veh OR4N2 (11742367_at) / RFU PRRT2 (11749266_a_at) / Fold change /veh PRRT2 (11749266_a_at) / RFU SNX32 (11753110_a_at) / Fold change /veh SNX32 (11753110_a_at) / RFU CDHR5 (11726645_a_at) / Fold change /veh CDHR5 (11726645_a_at) / RFU RCAN1 (11760418_a_at) / Fold change /veh RCAN1 (11760418_a_at) / RFU FAM167A (11723789_a_at) / Fold change /veh FAM167A (11723789_a_at) / RFU FAM26E (11764081_at) / Fold change /veh FAM26E (11764081_at) / RFU ISYNA1 (11749810_s_at) / Fold change /veh ISYNA1 (11749810_s_at) / RFU ACY1 (11761880_at) / Fold change /veh ACY1 (11761880_at) / RFU 11764098_at / Fold change /veh 11764098_at / RFU SAMD14 (11745864_x_at) / Fold change /veh SAMD14 (11745864_x_at) / RFU NPB (11741838_a_at) / Fold change /veh NPB (11741838_a_at) / RFU TMPRSS6 (11731388_a_at) / Fold change /veh TMPRSS6 (11731388_a_at) / RFU KRTAP10-2 (11738614_at) / Fold change /veh KRTAP10-2 (11738614_at) / RFU ARHGAP8 /// PRR5-ARHGAP8 (11727945_x_at) / Fold change /veh ARHGAP8 /// PRR5-ARHGAP8 (11727945_x_at) / RFU KRTAP5-7 /// NADSYN1 (11734609_at) / Fold change /veh KRTAP5-7 /// NADSYN1 (11734609_at) / RFU RASL12 (11751679_a_at) / Fold change /veh RASL12 (11751679_a_at) / RFU CDKN2B (11736163_a_at) / Fold change /veh CDKN2B (11736163_a_at) / RFU PRF1 (11729649_at) / Fold change /veh PRF1 (11729649_at) / RFU, ZNF638 /// ZNF638-IT1 / Fold change vs veh, ZNF638 /// ZNF638-IT1 / RFU, PANK3 / Fold change vs veh, PANK3 / RFU, SH3YL1 / Fold change vs veh, SH3YL1 / RFU, ZEB2 / Fold change vs veh, ZEB2 / RFU, NRIP1 / Fold change vs veh, NRIP1 / RFU, PTTG1IP / Fold change vs veh, PTTG1IP / RFU, CAPN2 / Fold change vs veh, CAPN2 / RFU, MED14 / Fold change vs veh, MED14 / RFU, SNORA58 / Fold change vs veh, SNORA58 / RFU, C1orf63 / Fold change vs veh, C1orf63 / RFU, LRRFIP1 / Fold change vs veh, LRRFIP1 / RFU, NDUFAF7 / Fold change vs veh, NDUFAF7 / RFU, SLC12A2 / Fold change vs veh, SLC12A2 / RFU, IBTK / Fold change vs veh, IBTK / RFU, ESF1 / Fold change vs veh, ESF1 / Fold change vs veh, TMEM50B / RFU, TAOK1 / Fold change vs veh, TAOK1 / RFU, ACBD3 / Fold change vs veh, ACBD3 / RFU, TMA16 / Fold change vs veh, TMA16 / RFU, RWDD3 / Fold change vs veh, RWDD3 / RFU, BCAT1 / Fold change vs veh, BCAT1 / RFU, EDEM3 / Fold change vs veh, EDEM3 / RFU, TMEM33 / Fold change vs veh, TMEM33 / RFU, WDR75 / Fold change vs veh, WDR75 / RFU, AHCTF1 / Fold change vs veh, AHCTF1 / RFU, TFRC / Fold change vs veh, TFRC / RFU, ZDHHC17 / Fold change vs veh, ZDHHC17 / RFU, NOM1 / Fold change vs veh, NOM1 / RFU, ARL8B / Fold change vs veh, ARL8B / RFU, ZBTB11 / Fold change vs veh, ZBTB11 / RFU, TAMM41 / Fold change vs veh, TAMM41 / RFU, KIAA1704 /// LOC100996395 / Fold change vs veh, KIAA1704 /// LOC100996395 / RFU, ING1 / Fold change vs veh, ING1 / RFU, TRMT61B / Fold change vs veh, TRMT61B / RFU, FUBP3 / Fold change vs veh, FUBP3 / RFU, TP53 / Fold change vs veh, TP53 / RFU, TNKS2 / Fold change vs veh, TNKS2 / RFU, ZFP14 / Fold change vs veh, ZFP14 / RFU, ACTR2 / Fold change vs veh, ACTR2 / RFU, PPP3R1 / Fold change vs veh, PPP3R1 / RFU, PIK3R1 / Fold change vs veh, PIK3R1 / RFU, HNRNPA1 / Fold change vs veh, HNRNPA1 / RFU, RNF170 / Fold change vs veh, RNF170 / RFU, ZNF28 / Fold change vs veh, ZNF28 / RFU, RNGTT / Fold change vs veh, RNGTT / RFU, OGT / Fold change vs veh, OGT / RFU, BRD1 / Fold change vs veh, BRD1 / RFU, MARS / Fold change vs veh, MARS / RFU, ZNF655 / Fold change vs veh, ZNF655 / RFU, FAHD1 / Fold change vs veh, FAHD1 / RFU, BDP1 / Fold change vs veh, BDP1 / RFU, LRRCC1 / Fold change vs veh, LRRCC1 / RFU, ARID1A / Fold change vs veh, ARID1A / RFU, ZNF146 / Fold change vs veh, ZNF146 / RFU, ZNF330 / Fold change vs veh, ZNF330 / RFU, GPN3 / Fold change vs veh, GPN3 / RFU, C9orf123 / Fold change vs veh, C9orf123 / RFU, N4BP2L2 / Fold change vs veh, N4BP2L2 / RFU, ARFIP1 / Fold change vs veh, ARFIP1 / RFU, FAM179B / Fold change vs veh, FAM179B / RFU, BCL10 / Fold change vs veh, BCL10 / RFU, UHRF1BP1L / Fold change vs veh, UHRF1BP1L / RFU, BET1 / Fold change vs veh, BET1 / RFU, CNOT2 / Fold change vs veh, CNOT2 / RFU, ZNF268 / Fold change vs veh, ZNF268 / Fold change vs veh, ZNF507 / RFU, DGCR2 / Fold change vs veh, DGCR2 / RFU, WDSUB1 / Fold change vs veh, WDSUB1 / Fold change vs veh, HSP90B1 /// MIR3652 / RFU, ADSS / Fold change vs veh, ADSS / RFU, GK / Fold change vs veh, GK / RFU, ZNF148 / Fold change vs veh, ZNF148 / RFU, TAF9 / Fold change vs veh, TAF9 / RFU, SLC1A5 / Fold change vs veh, SLC1A5 / RFU, SLMO2 / Fold change vs veh, SLMO2 / RFU, ABCC4 / Fold change vs veh, ABCC4 / RFU, LOC101060439 /// RAP1B / Fold change vs veh, LOC101060439 /// RAP1B / RFU, RFX7 / Fold change vs veh, RFX7 / RFU, GTPBP10 / Fold change vs veh, GTPBP10 / RFU, CNEP1R1 / Fold change vs veh, CNEP1R1 / RFU, BIVM-ERCC5 /// ERCC5 / Fold change vs veh, BIVM-ERCC5 /// ERCC5 / RFU, ILF3 / Fold change vs veh, ILF3 / RFU 11762660_at / Fold change /veh 11762660_at / RFU VCAN (11757783_s_at) / Fold change /veh VCAN (11757783_s_at) / RFU DDX43 (11728927_at) / Fold change /veh DDX43 (11728927_at) / RFU KRT8 (11758188_x_at) / Fold change /veh KRT8 (11758188_x_at) / RFU NKD1 (11759106_at) / Fold change /veh NKD1 (11759106_at) / RFU SRD5A1 (11742802_a_at) / Fold change /veh SRD5A1 (11742802_a_at) / RFU TPSAB1 /// TPSB2 (11721975_s_at) / Fold change /veh TPSAB1 /// TPSB2 (11721975_s_at) / RFU GSTM3 (11746129_a_at) / Fold change /veh GSTM3 (11746129_a_at) / RFU IL23R (11737362_x_at) / Fold change /veh IL23R (11737362_x_at) / RFU TMEM51 (11727254_a_at) / Fold change /veh TMEM51 (11727254_a_at) / RFU PIWIL2 (11732686_x_at) / Fold change /veh PIWIL2 (11732686_x_at) / RFU ORM1 (11744905_x_at) / Fold change /veh ORM1 (11744905_x_at) / RFU CCDC152 (11743942_at) / Fold change /veh CCDC152 (11743942_at) / RFU ECM1 (11717891_a_at) / Fold change /veh ECM1 (11717891_a_at) / RFU IL23R (11748794_a_at) / Fold change /veh IL23R (11748794_a_at) / RFU TNFAIP8L3 (11732012_x_at) / Fold change /veh TNFAIP8L3 (11732012_x_at) / RFU MBOAT4 (11741988_at) / Fold change /veh MBOAT4 (11741988_at) / RFU 11764193_at / Fold change /veh 11764193_at / RFU TMEM53 (11763286_at) / Fold change /veh TMEM53 (11763286_at) / RFU MAGEB2 (11727129_at) / Fold change /veh MAGEB2 (11727129_at) / RFU TMEM200A (11744735_a_at) / Fold change /veh TMEM200A (11744735_a_at) / RFU CCDC152 (11751479_a_at) / Fold change /veh CCDC152 (11751479_a_at) / RFU FAM211A (11726209_a_at) / Fold change /veh FAM211A (11726209_a_at) / RFU RGS16 (11746705_a_at) / Fold change /veh RGS16 (11746705_a_at) / RFU VCAN (11755009_s_at) / Fold change /veh VCAN (11755009_s_at) / RFU RHOB (11743442_s_at) / Fold change /veh RHOB (11743442_s_at) / RFU RGS16 (11720943_a_at) / Fold change /veh RGS16 (11720943_a_at) / RFU RGS16 (11720944_at) / Fold change /veh RGS16 (11720944_at) / RFU, VPS4B / Fold change vs veh, VPS4B / RFU, CREB1 / Fold change vs veh, CREB1 / RFU, DNAJC13 / Fold change vs veh, DNAJC13 / RFU, GNAQ / Fold change vs veh, GNAQ / RFU, CDK5R1 / Fold change vs veh, CDK5R1 / RFU, ZRANB3 / Fold change vs veh, ZRANB3 / RFU, CUL4A / Fold change vs veh, CUL4A / RFU, CCNY / Fold change vs veh, CCNY / RFU, UFL1 / Fold change vs veh, UFL1 / RFU, COG3 / Fold change vs veh, COG3 / RFU, DIAPH2 / Fold change vs veh, DIAPH2 / RFU, SKA2 / Fold change vs veh, SKA2 / RFU, AFF3 / Fold change vs veh, AFF3 / RFU, LMF1 / Fold change vs veh, LMF1 / RFU, IPO11 / Fold change vs veh, IPO11 / RFU, DFFB / Fold change vs veh, DFFB / RFU, FOXP1 / Fold change vs veh, FOXP1 / RFU, CARD8 / Fold change vs veh, CARD8 / RFU, STRN3 / Fold change vs veh, STRN3 / RFU, ADK / Fold change vs veh, ADK / RFU, RASSF2 / Fold change vs veh, RASSF2 / RFU, WIPF1 / Fold change vs veh, WIPF1 / RFU, LARP1B / Fold change vs veh, LARP1B / RFU, RASA1 / Fold change vs veh, RASA1 / RFU, RB1 / Fold change vs veh, RB1 / RFU, PPFIA1 / Fold change vs veh, PPFIA1 / RFU, MAT2A / Fold change vs veh, MAT2A / RFU, CCT5 / Fold change vs veh, CCT5 / RFU, WDR92 / Fold change vs veh, WDR92 / RFU, CUX1 / Fold change vs veh, CUX1 / RFU, TTC7A / Fold change vs veh, TTC7A / RFU, TMEM135 / Fold change vs veh, TMEM135 / RFU, DEPTOR / Fold change vs veh, DEPTOR / RFU, CPM / Fold change vs veh, CPM / RFU, DNAJB6 / Fold change vs veh, DNAJB6 / RFU, CACNA2D3 / Fold change vs veh, CACNA2D3 / RFU, DTX4 / Fold change vs veh, DTX4 / RFU, TFCP2 / Fold change vs veh, TFCP2 / RFU, GMCL1 /// GMCL1P1 / Fold change vs veh, GMCL1 /// GMCL1P1 / RFU, AEBP2 / Fold change vs veh, AEBP2 / RFU, SNHG1 /// SNORD22 /// SNORD25 /// SNORD26 /// SNORD27 /// SNORD28 /// SNORD29 /// SNORD31 / Fold change vs veh, SNHG1 /// SNORD22 /// SNORD25 /// SNORD26 /// SNORD27 /// SNORD28 /// SNORD29 /// SNORD31 / Fold change (Aza/veh), C12orf56 (ProbeSet 11735607_a_at) / Fold change (ACY-1035/veh), C12orf56 (ProbeSet 11735607_a_at) / Fold change (Aza/veh), FGFR1OP (ProbeSet 11751329_s_at) / Fold change (ACY-1035/veh), FGFR1OP (ProbeSet 11751329_s_at) / Fold change (Aza/veh), VPS36 (ProbeSet 11739960_a_at) / Fold change (ACY-1035/veh), VPS36 (ProbeSet 11739960_a_at) / RFU SYPL1 (11715823_x_at) / Fold change /veh SYPL1 (11715823_x_at) / RFU IGFBP7 (11715501_s_at) / Fold change /veh IGFBP7 (11715501_s_at) / RFU REEP3 (11722064_at) / Fold change /veh REEP3 (11722064_at) / RFU IGLL1 (11728026_x_at) / Fold change /veh IGLL1 (11728026_x_at): dose or concentration left out as unconfirmed
Details: ProbeSet 11725217_a_at; LIST B

SMILES: Nc1ccc(-c2cccs2)cc1NC(=O)c1ccc2c(c1)cc(C1CC1)n2CCN1CCOCC1 [ACY-1035]
- Fold change vs veh, WDSUB1: 1.02
